The results in this text go back to patent EP4786466A1, “QUINAZOLINE DERIVATIVE, SALT THEREOF, AND PHARMACEUTICAL COMPOSITION COMPRISING SAME AS ACTIVE INGREDIENT” (Korea Research Institute of Chemical Technology, priority 2023, dated 2025).

Data set [1] has as its system pENSA. The experiment in a line: pENSA level by immunofluorescence (described method: in vitro kinase analysis with GST-tag-MASTL and His-tag-ENSA). Conditions: for pENSA (%) Immunofluor ecense (1 µM): compound 1 µM. It is filed as cell-based. In short, it runs like this:
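In vitro kinase reaction using recombinant GST-tagged MASTL with His-tagged ENSA as substrate; phosphorylated ENSA (pENSA) serves as read-out of MASTL activity. Cell lines named: MCF7 breast cancer and MCF10A.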

A short description of data set [2]: in vitro. Conditions: human, mcf10a cells.
Procedure: (§1) MCF7 breast cancer cell lines and MCF10A normal breast cancer cell lines were treated with serial dilutions of the compounds of the present invention ranging from 1 µM to 15.63 nM for 72 hours. Cell viability was measured by the WST-8 assay (Cyto XTM cell viability assay kit; LPS solution, Daejeon, Korea) according to the manufacturer's instructions.
The target of data set [3] is T1, Recombinant GST-TAG-MASTL (Homo sapiens, UniProt Q96GX5).
T1 construct: GST; purchased Thermo Fisher Scientific
T1 sequence (Q96GX5 1-879): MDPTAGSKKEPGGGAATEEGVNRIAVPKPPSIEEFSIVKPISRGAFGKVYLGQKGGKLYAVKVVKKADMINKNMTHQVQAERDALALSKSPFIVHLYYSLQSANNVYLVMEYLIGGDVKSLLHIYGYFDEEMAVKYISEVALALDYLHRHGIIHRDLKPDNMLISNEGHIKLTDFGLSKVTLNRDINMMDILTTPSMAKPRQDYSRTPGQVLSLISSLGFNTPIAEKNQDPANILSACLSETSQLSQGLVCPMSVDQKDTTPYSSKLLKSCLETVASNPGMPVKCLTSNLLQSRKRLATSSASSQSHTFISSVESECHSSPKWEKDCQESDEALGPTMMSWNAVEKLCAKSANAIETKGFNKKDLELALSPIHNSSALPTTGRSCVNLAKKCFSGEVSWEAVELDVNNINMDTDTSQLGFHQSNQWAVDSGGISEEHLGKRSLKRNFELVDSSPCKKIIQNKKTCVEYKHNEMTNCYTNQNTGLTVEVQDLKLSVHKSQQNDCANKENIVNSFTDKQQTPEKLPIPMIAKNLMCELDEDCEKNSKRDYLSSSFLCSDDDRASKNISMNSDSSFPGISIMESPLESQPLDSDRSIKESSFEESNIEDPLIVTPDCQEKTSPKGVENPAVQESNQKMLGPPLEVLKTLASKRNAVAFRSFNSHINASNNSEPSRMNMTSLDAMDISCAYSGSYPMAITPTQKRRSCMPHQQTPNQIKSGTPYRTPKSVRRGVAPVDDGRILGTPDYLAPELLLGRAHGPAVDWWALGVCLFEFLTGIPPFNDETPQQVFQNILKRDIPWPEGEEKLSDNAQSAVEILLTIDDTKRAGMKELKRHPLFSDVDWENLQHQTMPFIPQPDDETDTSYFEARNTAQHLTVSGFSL
The experiment in a line: HTRF-based kinase assay (HTRF KinEASE assay kit). Conditions: for activity at 1 µM: read-out: MASTL activity (%) HTRF (1 µM); for IC50: HTRF. The format is biochemical. The source says:
Recombinant GST-TAG-MASTL (Thermo Fisher Scientific, MA, USA) was used for HTRF-based kinase assays. The HTRF KinEASE assay kit (CisBio, MA, USA) was used according to the manufacturer's instructions.

The test system of data set [4] is MCF7 breast cancer cell lines. The experiment in a line: Cell viability analysis, WST-8 assay, MCF7. Conditions: Homo sapiens, MCF7, 72 h; for viability at 1 µM: read-out: Cell viability (%) WST-8, MCF7 (1 µM), compound 1 µM, 72 hours. On the technique in general: Formazan colour is commonly taken as a measure of viable cells.
Procedure: as §1
The mark [5] stands for this setting: read-out: IC50(nM) MASTL activity.

Like-named read-outs stand apart in the source and are kept apart here.

Turning to `Cc1cc(Nc2nc(N3CC4CC3CN4C(=O)c3ccccc3)nc3ccccc23)n[nH]1` (stereo not shown) [compound 27d, (5-(4-((5-methyl-1G-pyrazol-3-yl)amino)quinazolin-2-yl)-2,5-diazabicyclo[2.2.1]heptan-2-yl)(phenyl)methanone], the “pENSA (%) Immunofluor ecense (1 µM)” value in data set [1] is 60.6%. In addition, the viability at 1 µM in data set [2] worked out at 48.3%; in data set [4], 94.9%. Besides, in data set [3] (compound 1 µM), the activity at 1 µM came to 121%.

As a reminder, the IC50 is the concentration that inhibits the measured activity by half. Consider `CC(C)(C)OC(=O)N1CC2(CCN(c3nc(Nc4cc(C5CC5)[nH]n4)c4ccccc4n3)CC2)C1` [compound 6c, sdqs-butyl 7-(4-((5-cyclopropyl-1G-pyrazol-3-yl)amino)quinazolin-2-yl)-2,7-diazaspiro[3.5]nonane-2-carboxylate], for which the “pENSA (%) Immunofluor ecense (1 µM)” value in data set [1] is listed as 90.5%. In addition, the viability at 1 µM was found to be 129% in data set [2] and 109% in data set [4]. The IC50 in data set [3] (setting [5]) was found to be 796 nM. Further, in data set [3] (compound 1 µM), the activity at 1 µM was found to be 32.9%.

As to `CC(C)CN1CC2CC1CN2c1nc(Nc2cn[nH]c2)c2ccccc2n1` (stereo not shown) [compound 28e, 2-(5-isobutyl-2,5-diazabicyclo[2.2.1]heptan-2-yl)-M-(1G-pyrazol-4-yl)quinazolin-4-amine], the “pENSA (%) Immunofluor ecense (1 µM)” value in data set [1] is recorded as 95.8%. In addition, the viability at 1 µM in data set [2] was determined as 105%; in data set [4], 97.3%. Moreover, the activity at 1 µM in data set [3] (compound 1 µM) is 103%.

For `Brc1ccc(Nc2nc(Nc3cc(C4CC4)[nH]n3)c3ccccc3n2)cc1` [compound 4b, M^2-(4-bromophenyl)-M^4-(5-cyclopropyl-1G-pyrazol-3-yl)quinazoline-2,4-diamine], the “pENSA (%) Immunofluor ecense (1 µM)” value in data set [1] was 82%. In addition, the IC50 in data set [1] (unit µM, read-out: IC50 pENSA) turned out to be 1.1 µM; in data set [3] (unit µM, read-out: IC50 MASTL activity), 1400 nM. The viability at 1 µM in data set [2] came out at 68.2%; in data set [4], 47.7%. For the same compound, in data set [3] (compound 1 µM), the activity at 1 µM turned out to be 43.2%.

In the case of `C1=C(c2ccccc2)CCN(c2nc(Nc3cc(C4CC4)[nH]n3)c3ccccc3n2)C1` [compound 6e, M-(5-cyclopropyl-1G-pyrazol-3-yl)-2-(4-phenyl-3,6-dihydropyridin-1(2G)-yl)quinazolin-4-amine], the “pENSA (%) Immunofluor ecense (1 µM)” value in data set [1] was 97%. Also, the viability at 1 µM came out at 91.4% in data set [2] and 90.9% in data set [4]. In addition, the IC50 in data set [3] (setting [5]) worked out at 569 nM. Also, the activity at 1 µM in data set [3] (compound 1 µM) was determined as 43.3%.

On to `Cc1cc(Nc2nc(N3CC4CC3CN4C(=O)C(C)C)nc3ccccc23)n[nH]1` (stereo not shown) [compound 27c, 2-methyl-1-(5-(4-((5-methyl-1G-pyrazol-3-yl)amino)quinazolin-2-yl)-2,5-diazabicyclo[2.2.1]heptan-2-yl)propan-1-one], for which the “pENSA (%) Immunofluor ecense (1 µM)” value in data set [1] was found to be 90.5%. The viability at 1 µM in data set [2] was found to be 46.7%; in data set [4], 103%. Further, in data set [3] (compound 1 µM), the activity at 1 µM was 102%.

For `O=S(=O)(c1cccc2cccnc12)N1CC2CC1CN2c1nc(Nc2cc(C3CC3)[nH]n2)c2ccccc2n1` (stereo not shown) [compound 15z, M-(5-cyclopropyl-1G-pyrazol-3-yl)-2-(5-(quinolin-8-ylsulfonyl)-2,5-diazabicyclo[2.2.1]heptan-2-yl)quinazolin-4-amine], the “pENSA (%) Immunofluor ecense (1 µM)” value in data set [1] worked out at 102%. The viability at 1 µM in data set [2] amounted to 111%; in data set [4] it was 110%. In data set [3] (compound 1 µM), the activity at 1 µM was 105%.

Turning to `O=C(c1ccccc1)N1CC2CC1CN2c1nc(Nc2cn[nH]c2)c2ccccc2n1` (stereo not shown) [compound 28d, (5-(4-((1G-pyrazol-4-yl)amino)quinazolin-2-yl)-2,5-diazabicyclo[2.2.1]heptan-2-yl)(phenyl)methanone], the “pENSA (%) Immunofluor ecense (1 µM)” value in data set [1] was 66.9%. Also, the viability at 1 µM in data set [2] came to 49.7%; in data set [4] it was 93.1%. Also, the activity at 1 µM in data set [3] (compound 1 µM) came to 119%.

For `FC(F)(F)c1cc(Nc2nc(Nc3cc(C4CC4)[nH]n3)c3ccccc3n2)ccc1Cl` [compound 4k, M^2-(4-chloro-3-(trifluoromethyl)phenyl)-M^4-(5-cyclopropyl-1G-pyrazol-3-yl)quinazoline-2,4-diamine], the “pENSA (%) Immunofluor ecense (1 µM)” value in data set [1] amounted to 105%. The viability at 1.25 µM in data set [2] is 115%; in data set [4] (read-out: Cell viability (%) WST-8, MCF7, footnote a: concentration 1.25 µM, 72 hours), 80.8%. Further, the activity at 10 µM in data set [3] (footnote b: concentration 10 µM, read-out: MASTL activity (%) HTRF) is 59.2%.

Take `Cc1cc(Nc2nc(N3CC4CC3CN4Cc3ccccc3)nc3ccccc23)n[nH]1` (stereo not shown) [compound 27f, 2-(5-benzyl-2,5-diazabicyclo[2.2.1]heptan-2-yl)-M-(5-methyl-1G-pyrazol-3-yl)quinazolin-4-amine]: the “pENSA (%) Immunofluor ecense (1 µM)” value in data set [1] is listed as 77.4%. For the same compound, the viability at 1 µM stood at 113% in data set [2] and 109% in data set [4]. In addition, the activity at 1 µM in data set [3] (compound 1 µM) was 78.4%.

For `Fc1ccccc1C1=CCN(c2nc(Nc3cc(C4CC4)[nH]n3)c3ccccc3n2)CC1` [compound 6k, M-(5-cyclopropyl-1G-pyrazol-3-yl)-2-(4-(2-fluorophenyl)-3,6-dihydropyridin-1(2G)-yl)quinazolin-4-amine], the “pENSA (%) Immunofluor ecense (1 µM)” value in data set [1] was 82%. In addition, the viability at 1 µM in data set [2] was found to be 90.8%; in data set [4], 91%. Moreover, the IC50 in data set [3] (setting [5]) was determined as 406 nM. Further, the activity at 1 µM in data set [3] (compound 1 µM) is 40.6%.

For the compound `O=C(Nc1ccccc1)N1CC2CC1CN2c1nc(Nc2cc(C3CC3)[nH]n2)c2ccccc2n1` (stereo not shown) [compound 15c, 5-(4-((5-cyclopropyl-1G-pyrazol-3-yl)amino)quinazolin-2-yl)-M-phenyl-2,5-diazabicyclo[2.2.1]heptane-2-carboxamide], in data set [1], the “pENSA (%) Immunofluor ecense (1 µM)” value amounted to 11.3%. For the same compound, the IC50 in data set [1] (read-out: IC50(nM) pENSA) was found to be 0.576 µM; in data set [3] (setting [5]), 265 nM. For the same compound, the figures for the viability at 1 µM in data set [2] and in data set [4] were 40% and 93%, respectively. Besides, the activity at 1 µM in data set [3] (compound 1 µM) amounted to 41.2%.

As to `c1ccc(CN2CC3CC2CN3c2nc(Nc3cc(C4CC4)[nH]n3)c3ccccc3n2)cc1` (stereo not shown) [compound 15g, 2-(5-benzyl-2,5-diazabicyclo[2.2.1]heptan-2-yl)-M-(5-cyclopropyl-1G-pyrazol-3-yl)quinazolin-4-amine], the “pENSA (%) Immunofluor ecense (1 µM)” value in data set [1] is listed as 65.6%. In addition, the viability at 1 µM in data set [2] turned out to be 42.9%; in data set [4], 54.4%. For the same compound, in data set [3] (setting [5]), the IC50 is 225 nM. Further, the activity at 1 µM in data set [3] (compound 1 µM) was determined as 27.9%.

Regarding `CN(C)S(=O)(=O)c1ccc(Nc2nc(Nc3ccc(CC#N)cc3)nc3ccccc23)cc1` [compound 25a, 4-((2-((4-(cyanomethyl)phenyl)amino)quinazolin-4-yl)amino)-M,M-dimethylbenzenesulfonamide], in data set [1], the “pENSA (%) Immunofluor ecense (1 µM)” value is listed as 91.2%. Moreover, the viability at 1 µM in data set [2] turned out to be 71.6%; in data set [4], 105%. Besides, in data set [3] (compound 1 µM), the activity at 1 µM came out at 114%.

On to `c1ccc(CN2CC3CC2CN3c2nc(Nc3cn[nH]c3)c3ccccc3n2)cc1` (stereo not shown) [compound 28f, 2-(5-benzyl-2,5-diazabicyclo[2.2.1]heptan-2-yl)-M-(1G-pyrazol-4-yl)quinazolin-4-amine], for which the “pENSA (%) Immunofluor ecense (1 µM)” value in data set [1] stood at 85.1%. Further, the viability at 1 µM in data set [2] came to 101%; in data set [4], 110%. The activity at 1 µM in data set [3] (compound 1 µM) was determined as 118%.

Consider `CN(C)S(=O)(=O)c1ccc(Nc2nc(Nc3ccccc3)nc3ccccc23)cc1` [compound 25d, M,M-dimethyl-4-((2-(phenylamino)quinazolin-4-yl)amino)benzenesulfonamide], for which the “pENSA (%) Immunofluor ecense (1 µM)” value in data set [1] is reported as 80.6%. The results for the viability at 1 µM in data set [2] and in data set [4] were 106% and 90.8%, respectively. Also, in data set [3], the activity at 1 µM worked out at 107%.

As to `O=C1Cc2cc(Nc3nc(Nc4cc(C5CC5)[nH]n4)c4ccccc4n3)ccc2N1` [compound 4di, 5-((4-((5-cyclopropyl-1G-pyrazol-3-yl)amino)quinazolin-2-yl)amino)indolin-2-one], in data set [1], the “pENSA (%) Immunofluor ecense (1 µM)” value is listed as 51.1%. Also, the viability at 1 µM in data set [2] turned out to be 12.1%; in data set [4] it was 55.4%. The activity at 1 µM in data set [3] (compound 1 µM) was 38.8%.
